Assay results taken from patent US9695155B2, “Herbicidal substituted pyrimidinyloxy benzene compounds” (E. I. DU PONT DE NEMOURS AND COMPANY, priority 2013, dated 2017).

Columns and labels:
[1] = system: wild mustard; assay: Test D preemergence; assay type: in vivo, Sinapis arvensis
Text: (§1) Seeds of plant species selected from bluegrass (annual bluegrass, Poa annua), blackgrass (Alopecurus myosuroides), canarygrass (littleseed canarygrass, Phalaris minor), chickweed (common chickweed, Stellaria media), galium (catchweed bedstraw, Galium aparine), bromegrass, downy (downy bromegrass, Bromus tectorum), field poppy (Papaver rhoeas), field violet (Viola arvensis), green foxtail (Setaria viridis), deadnettle (henbit deadnettle, Lamium amplexicaule), Italian ryegrass (Lolium multiflorum), kochia (Kochia scoparia), lambsquarters (Chenopodium album), oilseed rape (Brassica napus), pigweed (Amaranthus retroflexus), chamomile (scentless chamomile, Matricaria inodora), Russian thistle (Salsola kali), speedwell (bird's-eye speedwell, Veronica persica), spring barley (Hordeum vulgare), spring wheat (Triticum aestivum), wild buckwheat (Polygonum convolvulus), wild mustard (Sinapis arvensis), wild oat (Avena fatua), wild radish (Raphanus raphanistrum), windgrass (Apera spica-venti), winter barley (Hordeum vulgare), and winter wheat (Triticum aestivum) were planted into a silt loam soil and treated preemergence with test chemicals formulated in a non-phytotoxic solvent mixture which included a surfactant.
(§2) At the same time, these species were planted in pots containing Redi-Earth® planting medium (Scotts Company, 14111 Scottslawn Road, Marysville, Ohio 43041) comprising spaghnum peat moss, vermiculite, wetting agent and starter nutrients and treated with postemergence applications of the test chemicals formulated in the same manner. Plants ranged in height from 2 to 18 cm (1- to 4-leaf stage). Treated plants and controls were maintained in a controlled growth environment for 7 to 21 days after which time all species were compared to controls and visually evaluated. Plant response ratings, summarized in Table D, are based on a scale of 0 to 100 where 0 is no effect and 100 is complete control. A dash (-) response means no test result.

[2] = system: sedge, umbrella; assay: Test C flooded paddy test; assay type: in vivo, Cyperus difformis; conditions: Flood, scale 0 to 100 (0 no effect, 100 complete control), 13 to 15 days
Summary of the method: (§3)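 In-water treatment: compound dosed into 3 cm flood over soil, water level unchanged throughout. Controls run alongside; visual assessment at day 13–15.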

[3] = system: kochia; assay: Test D preemergence; assay type: in vivo, Kochia scoparia
Text: as §1, §2

[4] = system: barnyardgrass; assay: Test C flooded paddy test; assay type: in vivo, Echinochloa crus-galli; conditions: Flood, scale 0 to 100 (0 no effect, 100 complete control), 13 to 15 days
Summary of the method: as §3

[5] = system: surinam grass; assay: Test E preemergence; assay type: in vivo, Brachiaria decumbens; conditions: for Surinam Grass plant response rating: scale 0 to 100 (0 no effect, 100 complete control); for Plant response rating, Surinam Grass: scale 0 to 100, 0 no effect, 100 complete control
Summary of the method: (§4)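 Test chemicals formulated in a non-phytotoxic solvent mixture containing a surfactant were applied preemergence to seeds in silt loam soil or postemergence to plants at the 1- to 4-leaf stage in potting mix. After 14 to 21 days in a greenhouse, injury was visually rated against controls on a 0-100 scale (0 = no effect, 100 = complete control).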

[6] = system: barnyardgrass; assay: Test E preemergence; assay type: in vivo, Echinochloa crus-galli; conditions: for Barnyardgrass plant response rating: scale 0 to 100 (0 no effect, 100 complete control); for Plant response rating, Barnyardgrass: scale 0 to 100, 0 no effect, 100 complete control
Summary of the method: as §4

[7] = system: lambsquarters; assay: Test E preemergence; assay type: in vivo, Chenopodium album; conditions: for Lambsquarters plant response rating: scale 0 to 100 (0 no effect, 100 complete control); for Plant response rating, Lambsquarters: scale 0 to 100, 0 no effect, 100 complete control
Summary of the method: as §4

[8] = system: large (Lg) crabgrass; assay: Test E preemergence; assay type: in vivo, Digitaria sanguinalis; conditions: for Crabgrass, Large plant response rating: scale 0 to 100 (0 no effect, 100 complete control); for Plant response rating, Crabgrass, Large: scale 0 to 100, 0 no effect, 100 complete control
Summary of the method: as §4

[9] = system: velvetleaf; assay: Test E preemergence; assay type: in vivo, Abutilon theophrasti; conditions: for Velvetleaf plant response rating: scale 0 to 100 (0 no effect, 100 complete control); for Plant response rating, Velvetleaf: scale 0 to 100, 0 no effect, 100 complete control
Summary of the method: as §4

[10] = system: Brazilian crabgrass; assay: Test E preemergence; assay type: in vivo, Digitaria horizontalis; conditions: for Plant response rating, Crabgrass, Brazil: scale 0 to 100, 0 no effect, 100 complete control
Summary of the method: as §4

[11] = system: arrowleaf sida; assay: Test E preemergence; assay type: in vivo, Sida rhombifolia; conditions: for Arrowleaf Sida plant response rating: scale 0 to 100 (0 no effect, 100 complete control); for Plant response rating, Arrowleaf Sida: scale 0 to 100, 0 no effect, 100 complete control
Summary of the method: as §4

[12] = system: cocklebur; assay: Test E preemergence; assay type: in vivo, Xanthium strumarium; conditions: 16 g ai/ha, scale 0 to 100 (0 no effect, 100 complete control)
Text: Seeds of plant species selected from corn (Zea mays), soybean (Glycine max), velvetleaf (Abutilon theophrasti), lambsquarters (Chenopodium album), wild poinsettia (Euphorbia heterophylla), palmer pigweed (Amaranthus palmeri), waterhemp (common waterhemp, Amaranthus rudis), surinam grass (Brachiaria decumbens), large (Lg) crabgrass (Digitaria sanguinalis), Brazilian crabgrass (Digitaria horizontalis), fall panicum (Panicum dichotomiflorum), giant foxtail (Setaria faberii), green foxtail (Setaria viridis), goosegrass (Eleusine indica), johnsongrass (Sorghum halepense), ragweed (common ragweed, Ambrosia elatior), barnyardgrass (Echinochloa crus-galli), sandbur (southern sandbur, Cenchrus echinatus), arrowleaf sida (Sida rhombifolia), Italian ryegrass (Lolium multiflorum), dayflower (Virginia (VA) dayflower, Commelina virginica), field bindweed (Convolvulus arvensis), morningglory (Ipomoea coccinea), nightshade (eastern black nightshade, Solanum ptycanthum), kochia (Kochia scoparia), yellow nutsedge (Cyperus esculentus), cocklebur (common cocklebur, Xanthium strumarium), smartweed (ladysthumb smartweed, and hairy beggarticks (Bidens pilosa), were planted into a silt loam soil and treated preemergence with test chemicals formulated in a non-phytotoxic solvent mixture which included a surfactant.
At the same time, plants from these crop and weed species and also horseweed (Canada horseweed, Conyza canadensis), waterhemp_RES1, (ALS & Triazine resistant common waterhemp, Amaranthus rudis), and waterhemp_RES2, (ALS & HPPD resistant common waterhemp, Amaranthus rudis) were planted in pots containing Redi-Earth® planting medium (Scotts Company, 14111 Scottslawn Road, Marysville, Ohio 43041) comprising spaghnum peat moss, vermiculite, wetting agent and starter nutrients were treated with postemergence applications of test chemicals formulated in the same manner. Plants ranged in height from 2 to 18 cm for postemergence treatments (1- to 4-leaf stage). Treated plants and controls were maintained in a greenhouse for 14 to 21 days, after which time all species were compared to controls and visually evaluated. Plant response ratings, summarized in Table E, are based on a scale of 0 to 100 where 0 is no effect and 100 is complete control. A dash (-) response means no test result.

[13] = 16 g ai/ha, scale 0 (no effect) to 100 (complete control)

## Clc1cnc(Oc2ccccc2-n2cc(Cl)cn2)nc1 [Compound 3]
[1]; [13]
  Plant response rating, Mustard, Wild: 30
[1]; 31 g ai/ha, scale 0-100
  Plant response rating, Mustard, Wild: 80
[1]; 62 g ai/ha, scale 0-100
  Plant response rating, Mustard, Wild: 80
[1]; 125 g ai/ha, scale 0-100
  Plant response rating, Mustard, Wild: 90
[1]; 250 g ai/ha, scale 0-100
  Plant response rating, Mustard, Wild: 100
[2]; 31 g ai/ha
  Plant response rating, Sedge, Umbrella: 0
[2]; 62 g ai/ha
  Plant response rating, Sedge, Umbrella: 0
[2]; 125 g ai/ha
  Plant response rating, Sedge, Umbrella: 20
[2]; 250 g ai/ha
  Plant response rating, Sedge, Umbrella: 70
[3]; [13]
  Plant response rating, Kochia: 0
[3]; 31 g ai/ha, scale 0-100
  Plant response rating, Kochia: 30
[3]; 62 g ai/ha, scale 0-100
  Plant response rating, Kochia: 30
[3]; 125 g ai/ha, scale 0-100
  Plant response rating, Kochia: 30
[3]; 250 g ai/ha, scale 0-100
  Plant response rating, Kochia: 50
[4]; 31 g ai/ha
  Plant response rating, Barnyardgrass: 0
[4]; 62 g ai/ha
  Plant response rating, Barnyardgrass: 0
[4]; 125 g ai/ha
  Plant response rating, Barnyardgrass: 0
[4]; 250 g ai/ha
  Plant response rating, Barnyardgrass: 0

## FC(F)(F)c1cnn(-c2ccccc2Oc2ncc(Cl)cn2)c1 [Compound 16]
[5]; 16 g ai/ha
  Surinam Grass plant response rating: 0
[5]; 31 g ai/ha
  Surinam Grass plant response rating: 0
[5]; 62 g ai/ha
  Surinam Grass plant response rating: 0
[5]; 125 g ai/ha
  Plant response rating, Surinam Grass: 30
[5]; 250 g ai/ha
  Plant response rating, Surinam Grass: 50
[6]; 16 g ai/ha, preemergence
  Barnyardgrass plant response rating: 0
[6]; 31 g ai/ha, preemergence
  Barnyardgrass plant response rating: 0
[6]; Preemergence, 62 g ai/ha
  Plant response rating, Barnyardgrass: 0
[6]; preemergence, 125 g ai/ha
  Plant response rating, Barnyardgrass: 10
[6]; preemergence, 250 g ai/ha
  Plant response rating, Barnyardgrass: 40
[7]; 16 g ai/ha
  Lambsquarters plant response rating: 50
[7]; 31 g ai/ha
  Lambsquarters plant response rating: 80
[7]; 62 g ai/ha
  Lambsquarters plant response rating: 98
[7]; 125 g ai/ha
  Plant response rating, Lambsquarters: 98
[7]; 250 g ai/ha
  Plant response rating, Lambsquarters: 98
[8]; 16 g ai/ha
  Crabgrass, Large plant response rating: 0
[8]; 31 g ai/ha
  Crabgrass, Large plant response rating: 0
[8]; 62 g ai/ha
  Crabgrass, Large plant response rating: 65
[8]; 125 g ai/ha
  Plant response rating, Crabgrass, Large: 80
[8]; 250 g ai/ha
  Plant response rating, Crabgrass, Large: 100
[9]; 16 g ai/ha
  Velvetleaf plant response rating: 0
[9]; 31 g ai/ha
  Velvetleaf plant response rating: 50
[9]; 62 g ai/ha
  Velvetleaf plant response rating: 85
[9]; 125 g ai/ha
  Plant response rating, Velvetleaf: 100
[9]; 250 g ai/ha
  Plant response rating, Velvetleaf: 100
[10]; 62 g ai/ha, scale 0 to 100 (0 no effect, 100 complete control)
  Crabgrass, Brazil plant response rating: 100
[10]; 125 g ai/ha
  Plant response rating, Crabgrass, Brazil: 100
[10]; 250 g ai/ha
  Plant response rating, Crabgrass, Brazil: 100
[11]; 16 g ai/ha, preemergence
  Arrowleaf Sida plant response rating: 5
[11]; 31 g ai/ha, preemergence
  Arrowleaf Sida plant response rating: 35
[11]; Preemergence, 62 g ai/ha
  Plant response rating, Arrowleaf Sida: 70
[11]; preemergence, 125 g ai/ha
  Plant response rating, Arrowleaf Sida: 95
[11]; preemergence, 250 g ai/ha
  Plant response rating, Arrowleaf Sida: 98
[12]
  Cocklebur plant response rating: 0
